In one data set the test system is viable cells in culture. The data set is described as follows: Cell viability assay (CellTiter-Glo Luminescent Cell Viability Assay, ATP quantitation). The conditions noted are these: percent of DMSO vehicle control. In kind it is cell-based. (In general: Cellular ATP, detected with luciferase, serves as a proxy for viable cell number.)
Data set [1] concerns human TERT expression (hTERT mRNA transcripts). The data set is described as follows: Quantitative real-time RT-PCR of hTERT mRNA transcripts in compound-treated cells. In kind it is cell-based. An excerpt: Telomerase is a ribonucleoprotein complex composed of the catalytic protein subunit (human telomerase reverse transcriptase or hTERT) and the RNA template. hTERT expression level can be measured by PCR.
Quantitative Reverse Transcription PCR can be run according to procedures outlined in Yajima et al. (Yajima, T. et al. Quantitative Reverse Transcription-PCR Assay of the RNA Component of Human Telomerase Using the TaqMan Fluorogenic Detection System Clinical Chemistry, 44:12, 2441-2445, 1998).
The principle of real-time PCR was first described by Heid et al. (Heid C. A., Stevens J., Livak K. J., Williams P. M. Real time quantitative PCR. Genome Res., 6: 986-994, 1996). Briefly, amplification of the target sequence is monitored per PCR cycle by detecting the fluorescence signal emitted by an internal probe that is degraded by the 5′ nuclease activity of the Taq polymerase. The emission signal accumulates in each sample, and the Ct required to reach a given fluorescence threshold is determined (Ct stands for Cycle Threshold and is a measure of the number of PCR cycles that are required to amplify a target—thus, a lower Ct score means that there is more abundant hTERT mRNA). Thus, the C1 value of a sample inversely correlates to the quantity of the starting cDNA which correlates to the number of mRNA transcripts. Using the cDNA of known quantity, a standard curve can be generated and used to determine the starting amount of mRNA transcripts based on the […] of each sample.
Quantitative real-time PCR can be done on cDNA from test compound-treated and nontreated cells by use of a ABI Prism 7900 Sequence Detection System (PE Applied Biosystems, Foster City, CA) following the Assays-on-Demand protocol (PE Applied Biosystems, Foster City, CA). Quantitative data can be analyzed using the Sequence Detection System software version 2.1 (PE Applied Biosystems).
The following compounds were tested in assays designed to identify compounds that enhance human TERT expression. The compounds turned on human TERT expression in these assays.
A general note: Real-time PCR tracks product formation cycle by cycle.
Also: test concentration or dose not given here.

Description for viable cells in culture: Cell viability is determined using a homogeneous method, such as CellTiter-Glo® Luminescent Cell Viability Assay (Promega Corporation, Madison, WI) to determine the number of viable cells in culture These assays are based on quantitation of the ATP present, which signals the presence of metabolically active cells. Luminescent values of compound treated cells are compared to that of cells treated with vehicle alone to determine the average cell viability as a percent of control.

Consider `Cc1ccc(S(=O)(=O)Nc2ccc(O)c3ncccc23)cc1` [Compound 1091], for which, in the data set with viable cells in culture, the “Average Cell Viability after 24 Hours (% DMSO)” value was found to be 94.3 % DMSO. Also, the “Average Number of hTERT Transcripts” value in data set [1] worked out at 91.89.

With `COc1cc(C(Nc2ccccn2)c2ccc3cccnc3c2O)cc(Br)c1OC` (stereo not drawn) [Compound 1005], the “Average Cell Viability after 24 Hours (% DMSO)” value in the data set on viable cells in culture was determined as 64.8 % DMSO. In data set [1], the “Average Number of hTERT Transcripts” value is 55.17.

In the case of `Cc1cc(C)n(-c2ccc3c(Cl)cc(Cl)c(O)c3n2)n1` [Compound 1079], the “Average Cell Viability after 24 Hours (% DMSO)” value with viable cells in culture is recorded as 71.22 % DMSO. Also, the “Average Number of hTERT Transcripts” value in data set [1] is listed as 98.36.

Turning to `Cc1ccc(S(=O)(=O)Nc2cc(S(=O)(=O)c3ccc(C)cc3)c(O)c3ncccc23)cc1` [Compound 1093], in the data set with viable cells in culture, the “Average Cell Viability after 24 Hours (% DMSO)” value amounted to 66.5 % DMSO. In data set [1], the “Average Number of hTERT Transcripts” value was 160.48.

As to `CCCCC(=O)NC(c1ccc(O)c(OCC)c1)c1cc([N+](=O)[O-])c2cccnc2c1O` (stereo not drawn) [Compound 1075], the “Average Cell Viability after 24 Hours (% DMSO)” value in the data set on viable cells in culture is on record as 82.63 % DMSO. Also, the “Average Number of hTERT Transcripts” value in data set [1] turned out to be 83.26.

As for `CCCOCc1cc(CN2CCCCC2)c(O)c2ncccc12` [Compound 1100], in the data set with viable cells in culture, the “Average Cell Viability after 24 Hours (% DMSO)” value was 56.1 % DMSO. In addition, in data set [1], the “Average Number of hTERT Transcripts” value is 9.12.

As to `CCCCC(=O)NC(c1ccc2c(c1)OCO2)c1cc([N+](=O)[O-])c2cccnc2c1O` (stereo not drawn) [Compound 1046], the “Average Cell Viability after 24 Hours (% DMSO)” value with viable cells in culture is 78 % DMSO. Also, in data set [1], the “Average Number of hTERT Transcripts” value amounted to 158.46.

As for `Oc1c(Cl)cc(Cl)c2cccnc12` [Compound 1020], in the data set with viable cells in culture, the “Average Cell Viability after 24 Hours (% DMSO)” value was determined as 25.1 % DMSO. The “Average Number of hTERT Transcripts” value in data set [1] is recorded as 45.03.

As to `COc1ccc(C(NC(C)=O)c2cc(Cl)c3cccnc3c2O)cc1OC` (stereo not drawn) [Compound 1038], the “Average Cell Viability after 24 Hours (% DMSO)” value in the data set on viable cells in culture stood at 80.33 % DMSO. Further, in data set [1], the “Average Number of hTERT Transcripts” value came out at 28.95.

For `CC(=O)NC(c1cccs1)c1cc(Cl)c2cccnc2c1O` (stereo not drawn) [Compound 1052], the “Average Cell Viability after 24 Hours (% DMSO)” value in the data set with viable cells in culture amounted to 60.8 % DMSO. Also, the “Average Number of hTERT Transcripts” value in data set [1] came to 12.07.

`Oc1c(C(Nc2ccccn2)c2ccccc2Br)ccc2cccnc12` (stereo not drawn) [Compound 1007]: the “Average Cell Viability after 24 Hours (% DMSO)” value with viable cells in culture was 68 % DMSO. In data set [1], the “Average Number of hTERT Transcripts” value is 18.02.

Regarding `COc1ccc(C(NC(=O)C(C)C)c2cc([N+](=O)[O-])c3cccnc3c2O)cc1` (stereo not drawn) [Compound 1073], the “Average Cell Viability after 24 Hours (% DMSO)” value in the data set with viable cells in culture is 80.1 % DMSO. Moreover, in data set [1], the “Average Number of hTERT Transcripts” value was determined as 103.42.

Turning to `CCN(CC)c1ccc(C(NC(=O)C(C)C)c2cc(Cl)c3cccnc3c2O)cc1` (stereo not drawn) [Compound 1011], the “Average Cell Viability after 24 Hours (% DMSO)” value in the data set on viable cells in culture worked out at 64.5 % DMSO. Besides, the “Average Number of hTERT Transcripts” value in data set [1] was 14.2.

Regarding `O=[N+]([O-])c1cc(CN2CCN(c3ccccc3)CC2)c(O)c2ncccc12` [Compound 1029], the “Average Cell Viability after 24 Hours (% DMSO)” value in the data set on viable cells in culture is given as 32 % DMSO. Further, the “Average Number of hTERT Transcripts” value in data set [1] is listed as 5.3.

Turning to `Cc1ccnc(NC(c2cccc(Cl)c2)c2ccc3ccc(C)nc3c2O)c1` (stereo not drawn) [Compound 1080], in data set [1], the “Average Number of hTERT Transcripts” value is recorded as 26.36.

Regarding `Oc1c(C(Nc2ccccc2Cl)c2ccccn2)ccc2cccnc12` (stereo not drawn) [Compound 1095], the “Average Number of hTERT Transcripts” value in data set [1] is 3.46.

`Cc1ccc2ccc(C(Nc3ccccn3)c3cccc([N+](=O)[O-])c3)c(O)c2n1` (stereo not drawn) [Compound 1078]: the “Average Number of hTERT Transcripts” value in data set [1] came to 36.96.

As to `CCN1CCN(Cc2ccc3cccnc3c2O)CC1` [Compound 1089], the “Average Number of hTERT Transcripts” value in data set [1] is reported as 38.29.

`COc1ccc(C(NC(C)=O)c2ccc3cccnc3c2O)cc1OC` (stereo not drawn) [Compound 1023]: the “Average Number of hTERT Transcripts” value in data set [1] turned out to be 160.65.

Take `Oc1c(CN2CCN(c3cccc(Cl)c3)CC2)cc(Br)c2cccnc12` [Compound 1002]: in the data set with viable cells in culture, the “Average Cell Viability after 24 Hours (% DMSO)” value is given as 57.7 % DMSO. For the same compound, the “Average Number of hTERT Transcripts” value in data set [1] is listed as 14.79.

Consider `CC(=O)NC(c1ccc(C)cc1)c1ccc2cccnc2c1O` (stereo not drawn) [Compound 1024], for which the “Average Number of hTERT Transcripts” value in data set [1] came to 165.68.

With `CC(=O)NC(c1ccccc1Cl)c1ccc2cccnc2c1O` (stereo not drawn) [Compound 1025], in the data set with viable cells in culture, the “Average Cell Viability after 24 Hours (% DMSO)” value is 93.5 % DMSO. Further, in data set [1], the “Average Number of hTERT Transcripts” value is 113.98.

With `CC(C)C(=O)NC(c1ccc2c(c1)OCO2)c1cc([N+](=O)[O-])c2cccnc2c1O` (stereo not drawn) [Compound 1064], in data set [1], the “Average Number of hTERT Transcripts” value is reported as 52.74.

Turning to `CC(C)OCc1cc(CN2CCCCC2)c(O)c2ncccc12` [Compound 1102], the “Average Number of hTERT Transcripts” value in data set [1] was found to be 351.44.

On to `CCOc1cc(C(NC(C)=O)c2cc([N+](=O)[O-])c3cccnc3c2O)ccc1O` (stereo not drawn) [Compound 1033], for which the “Average Number of hTERT Transcripts” value in data set [1] amounted to 28.91.

Consider `CCC(=O)NC(c1ccccc1OC)c1cc(Cl)c2cccnc2c1O` (stereo not drawn) [Compound 1043], for which, in data set [1], the “Average Number of hTERT Transcripts” value amounted to 15.13.

For `CCCC(=O)NC(c1ccc(C(C)C)cc1)c1cc([N+](=O)[O-])c2cccnc2c1O` (stereo not drawn) [Compound 1056], in data set [1], the “Average Number of hTERT Transcripts” value is listed as 62.15.

In the case of `CCC(=O)NC(c1ccc(C)cc1)c1cc([N+](=O)[O-])c2cccnc2c1O` (stereo not drawn) [Compound 1049], the “Average Number of hTERT Transcripts” value in data set [1] turned out to be 49.12.

Regarding `CN1CCN(Cc2cc(COCc3ccccc3)c3cccnc3c2O)CC1` [Compound 1003], in data set [1], the “Average Number of hTERT Transcripts” value amounted to 10.05.

In the case of `Cc1ccc(C(NC(=O)C2CCCCC2)c2ccc3cccnc3c2O)cc1` (stereo not drawn) [Compound 1047], the “Average Number of hTERT Transcripts” value in data set [1] came out at 43.89.

Consider `COc1cccc(C(=O)NC(c2ccc(OC)c(OC)c2)c2cc(Cl)c3cccnc3c2O)c1` (stereo not drawn) [Compound 1013], for which the “Average Number of hTERT Transcripts” value in data set [1] came out at 40.42.

On to `Oc1c(I)cc(I)c2cccnc12` [Compound 1018], for which the “Average Cell Viability after 24 Hours (% DMSO)” value in the data set with viable cells in culture was found to be 56.9 % DMSO. Further, in data set [1], the “Average Number of hTERT Transcripts” value worked out at 105.41.

As to `Cc1ccnc(NC(c2cccc([N+](=O)O)c2)c2ccc3ccc(C)nc3c2O)c1` (stereo not drawn) [Compound 1084], the “Average Cell Viability after 24 Hours (% DMSO)” value in the data set with viable cells in culture was determined as 65.08 % DMSO. In addition, the “Average Number of hTERT Transcripts” value in data set [1] amounted to 11.54.

With `Cc1ccnc(NC(c2ccc([N+](=O)O)cc2)c2ccc3ccc(C)nc3c2O)c1` (stereo not drawn) [Compound 1081], the “Average Cell Viability after 24 Hours (% DMSO)” value in the data set with viable cells in culture is 70.69 % DMSO. Besides, the “Average Number of hTERT Transcripts” value in data set [1] was 18.87.

With `CC(=O)NC(c1ccc(Cl)cc1)c1cc([N+](=O)[O-])c2cccnc2c1O` (stereo not drawn) [Compound 1037], the “Average Number of hTERT Transcripts” value in data set [1] is reported as 55.41.

In the case of `CCCCC(=O)NC(/C=C/c1ccccc1)c1cc([N+](=O)[O-])c2cccnc2c1O` (stereo not drawn) [Compound 1069], the “Average Number of hTERT Transcripts” value in data set [1] worked out at 101.8.

As for `CCC(=O)NC(c1ccc(OC)c(OC)c1)c1cc([N+](=O)[O-])c2cccnc2c1O` (stereo not drawn) [Compound 1028], the “Average Cell Viability after 24 Hours (% DMSO)” value in the data set with viable cells in culture was determined as 80.69 % DMSO. Moreover, the “Average Number of hTERT Transcripts” value in data set [1] amounted to 65.66.

For `CC(C)C(=O)NC(c1ccccc1)c1cc([N+](=O)[O-])c2cccnc2c1O` (stereo not drawn) [Compound 1110], the “Average Number of hTERT Transcripts” value in data set [1] worked out at 35.19.

Regarding `CCC(=O)NC(c1ccc(N(C)C)cc1)c1ccc2cccnc2c1O` (stereo not drawn) [Compound 1001], the “Average Number of hTERT Transcripts” value in data set [1] turned out to be 12.47.

With `O=C(NC(c1ccc(Cl)cc1)c1ccc2cccnc2c1O)C1CCCCC1` (stereo not drawn) [Compound 1045], in the data set with viable cells in culture, the “Average Cell Viability after 24 Hours (% DMSO)” value stood at 60.3 % DMSO. Also, the “Average Number of hTERT Transcripts” value in data set [1] turned out to be 13.86.

Consider `O=C(NC(c1ccc2c(c1)OCO2)c1cc([N+](=O)[O-])c2cccnc2c1O)C1CCCCC1` (stereo not drawn) [Compound 1068], for which the “Average Cell Viability after 24 Hours (% DMSO)” value in the data set with viable cells in culture came to 61.2 % DMSO. Moreover, in data set [1], the “Average Number of hTERT Transcripts” value is on record as 21.41.

`CC(=O)NC(c1ccco1)c1cc([N+](=O)[O-])c2cccnc2c1O` (stereo not drawn) [Compound 1034]: in data set [1], the “Average Number of hTERT Transcripts” value worked out at 44.71.

Regarding `Cc1ccc2ccc(C(Nc3ccccn3)c3ccccc3Cl)c(O)c2n1` (stereo not drawn) [Compound 1111], the “Average Number of hTERT Transcripts” value in data set [1] is 35.20.

In the case of `CCC(=O)NC(c1ccccc1Cl)c1cc(Cl)c2cccnc2c1O` (stereo not drawn) [Compound 1041], the “Average Number of hTERT Transcripts” value in data set [1] is 20.78.

Values taken from patent US12168019B1, “8-hydroxy quinoline derivatives for enhancing telomerase reverse transcriptase (TERT) expression” (Sierra Sciences, Inc., priority 2010, dated 2024).
